Results as given in patent publication US20260042755A1, “GPR6 INVERSE AGONISTS” (MapLight Therapeutics, Inc., priority 2022, published 2026).

How the values were obtained:
[1] = target: T1, GPR3 (Homo sapiens, UniProt P46089); assay: GPR3 antagonist functional cAMP assay (LANCE Ultra cAMP TR-FRET, CHO cells stably expressing GPR3); format: cell-based
T1 construct: expressed in transfected cells; host or cells: CHO cells
How it was run: (§1)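 Suspended cells were plated at 10,000 per well in Krebs-Ringer bicarbonate buffer containing 0.1% BSA and 150 μM Ro 20-1724, then treated with compounds for 45 min at 37 °C. Intracellular cAMP was then quantified by TR-FRET immunoassay.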

[2] = target: T2, GPR6 (Homo sapiens, UniProt P46095); assay: GPR6 antagonist functional cAMP assay (LANCE Ultra cAMP TR-FRET, CHO cells stably expressing GPR6); format: cell-based
T2 construct: expressed in transfected cells; host or cells: CHO cells
T2 sequence (P46095 whole entry): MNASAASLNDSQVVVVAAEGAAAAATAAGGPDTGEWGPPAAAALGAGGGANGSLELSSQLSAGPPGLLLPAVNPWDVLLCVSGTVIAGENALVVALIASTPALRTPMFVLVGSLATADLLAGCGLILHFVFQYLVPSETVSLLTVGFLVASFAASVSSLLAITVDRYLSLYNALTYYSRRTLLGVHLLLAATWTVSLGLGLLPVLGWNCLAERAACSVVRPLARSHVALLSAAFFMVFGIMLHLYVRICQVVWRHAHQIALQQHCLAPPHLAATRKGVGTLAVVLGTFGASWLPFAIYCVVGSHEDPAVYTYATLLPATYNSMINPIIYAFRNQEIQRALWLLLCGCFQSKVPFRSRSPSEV
How it was run: as §1

[3] = CHO cells stably expressing GPR3, cAMP assay (Example 24)
[4] = CHO cells stably expressing GPR6, cAMP assay (Example 24)
[5] = CHO cells stably expressing GPR3, cAMP assay
[6] = CHO cells stably expressing GPR6, cAMP assay

T1 sequence (P46089 whole entry, species assumed): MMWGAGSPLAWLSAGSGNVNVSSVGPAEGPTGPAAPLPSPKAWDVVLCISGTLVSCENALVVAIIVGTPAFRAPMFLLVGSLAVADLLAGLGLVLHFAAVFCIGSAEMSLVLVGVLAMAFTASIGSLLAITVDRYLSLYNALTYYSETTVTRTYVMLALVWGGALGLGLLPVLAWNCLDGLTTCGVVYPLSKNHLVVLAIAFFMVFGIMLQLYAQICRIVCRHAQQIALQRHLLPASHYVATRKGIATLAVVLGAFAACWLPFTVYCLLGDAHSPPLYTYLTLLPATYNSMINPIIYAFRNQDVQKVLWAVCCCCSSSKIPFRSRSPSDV

| Compound | IC50 ([1]; procedure of Example 24) | IC50 ([2]; procedure of Example 24) | IC50 [1, 3] | IC50 [2, 4] | also measured |
| --- | --- | --- | --- | --- | --- |
| CC(=O)N1CCc2nc(N3CCN(Cc4ccccc4C#N)CC3)c(-c3cnn(C)c3)nc2C1 [Compound 351, 2-({4-[6-acetyl-3-(1-methyl-1H-pyrazol-4-yl)-5H,6H,7H,8H-pyrido[3,4-b]pyrazin-2-yl]piperazin-1-yl}methyl)benzonitrile] | 1000 to 30000 nM | 1000 to 30000 nM | – | – | – |
| OCCN1CCc2nc(N3CCC(Oc4ccc(F)cc4F)CC3)c(-c3cnn(C4CCCCO4)c3)nc2C1 (centres unmarked) [Compound 140, 2-{2-[4-(2,4-difluorophenoxy)piperidin-1-yl]-3-[1-(oxan-2-yl)-1H-pyrazol-4-yl]-5H,6H,7H,8H-pyrido[3,4-b]pyrazin-6-yl}ethan-1-ol] | – | – | 1000 to 30000 nM | 1000 to 30000 nM | – |
| O=c1cccc(-c2nc3ccncc3nc2N2CCC(Oc3ccc(F)cc3F)CC2)[nH]1 [Compound 99, 6-{3-[4-(2,4-difluorophenoxy)piperidin-1-yl]pyrido[3,4-b]pyrazin-2-yl}-1,2-dihydropyridin-2-one] | – | – | 1000 to 30000 nM | 1000 to 30000 nM | – |
| CC(=O)N1CCc2nc(N3CCN(Cc4ccccc4Br)CC3)c(-c3cnn(C)c3)nc2C1 [Compound 508, 1-(2-{4-[(o-bromophenyl)methyl]-1-piperazinyl}-3-(1-methyl-4-pyrazolyl)-5,6,7,8-tetrahydro-1,4,6-triaza-6-naphthyl)-1-ethanone] | – | – | – | – | IC50 [1, 5]: 1000 to 30000 nM; IC50 [2, 6]: 100 to 1000 nM |
| Fc1ccc(OC2CCN(c3nc4cnccc4nc3-c3cnn(C4CCCCO4)c3)CC2)c(F)c1 (centres unmarked) [Compound 97, 4-(2,4-difluorophenoxy)-1-{2-[1-(oxan-2-yl)-1H-pyrazol-4-yl]pyrido[3,4-b]pyrazin-3-yl}piperidine] | – | – | 1000 to 30000 nM | 1000 to 30000 nM | – |
| CC(=O)N1CCc2nc(N3CCC(Cn4ccccc4=O)CC3)c(-c3cnn(C)c3)nc2C1 [Compound 522, 1-({1-[6-acetyl-3-(1-methyl-4-pyrazolyl)-5,6,7,8-tetrahydro-1,4,6-triaza-2-naphthyl]-4-piperidyl}methyl)-2(1H)-pyridinone] | – | – | – | – | IC50 [1, 5]: 1000 to 30000 nM; IC50 [2, 6]: 1000 to 30000 nM |
| CC(=O)N1CCc2nc(N3CCN(Cc4cn[nH]c4)CC3)c(-c3cnn(C)c3)nc2C1 [Compound 536, 1-[3-(1-methyl-4-pyrazolyl)-2-{4-[(4-pyrazolyl)methyl]-1-piperazinyl}-5,6,7,8-tetrahydro-1,4,6-triaza-6-naphthyl]-1-ethanone] | – | – | – | – | IC50 [1, 5]: ≥ 30000 nM; IC50 [2, 6]: ≥ 30000 nM |
| COc1cc2nc(N3CCC(Oc4ccc(F)cc4F)CC3)c(-c3cnn(C)c3)nc2cn1 [Compound 410, 2-(4-(2,4-difluorophenoxy)piperidin-1-yl)-7-methoxy-3-(1-methyl-1H-pyrazol-4-yl)pyrido[3,4-b]pyrazine] | – | – | 1000 to 30000 nM | 1000 to 30000 nM | – |
| O=C(CO)N1CCc2nc(N3CCC(Oc4ccc(F)cc4F)CC3)c(-c3cn[nH]c3)nc2C1 [Compound 179, 1-{2-[4-(2,4-difluorophenoxy)piperidin-1-yl]-3-(1H-pyrazol-4-yl)-5H,6H,7H,8H-pyrido[3,4-b]pyrazin-6-yl}-2-hydroxyethan-1-one] | – | – | 1000 to 30000 nM | < 100 nM | – |
| CC(=O)N1CCc2nc(N3CCC(Oc4ccc(F)cc4F)CC3)c(-c3cnn([C@H](C)C#N)c3)nc2C1 (single isomer, unassigned) [Compound 272] | 1000 to 30000 nM | 100 to 1000 nM | – | – | – |

Further lines, with some results ahead:

| IC50 ([1]; procedure of Example 24) | IC50 ([2]; procedure of Example 24) | IC50 [1, 3] | IC50 [2, 4] | Compound | also measured |
| --- | --- | --- | --- | --- | --- |
| 1000 to 30000 nM | 100 to 1000 nM | – | – | FCn1cc(-c2nc3cc(Cl)ncc3nc2N2CCN(Cc3ccc(F)cc3F)CC2)cn1 [Compound 761, 7-chloro-3-{4-[(2,4-difluorophenyl)methyl]-1-piperazinyl}-2-[1-(fluoromethyl)-4-pyrazolyl]-1,4,6-triazanaphthalene] | – |
| 1000 to 30000 nM | 100 to 1000 nM | – | – | CC(C)(O)[C@](C)(O)c1cc2nc(-c3cnn(C4CC4)c3)c(N3CCN(Cc4ccccc4F)CC3)nc2cn1 (single isomer, unassigned) [Compound 775] | – |
| 1000 to 30000 nM | < 100 nM | – | – | CC(C)(O)[C@@H](O)c1cc2nc(N3CCN(Cc4ccccc4F)CC3)c(-c3cnn(CF)c3)nc2cn1 (single isomer, unassigned) [Compound 647] | – |
